Our source for the IC50 values is patent US20230192631A1, “Biphenyl Derivatives” (Hoffmann-La Roche Inc., priority 2020, published 2023).

In this test the target is T1, human cGAS (residues 161-522) (Homo sapiens, UniProt Q8N884).
T1 construct: Recombinantly expressed purified human cGAS (residues 161-522) was used at 25 nM; made in house
T1 sequence (Q8N884 161-522): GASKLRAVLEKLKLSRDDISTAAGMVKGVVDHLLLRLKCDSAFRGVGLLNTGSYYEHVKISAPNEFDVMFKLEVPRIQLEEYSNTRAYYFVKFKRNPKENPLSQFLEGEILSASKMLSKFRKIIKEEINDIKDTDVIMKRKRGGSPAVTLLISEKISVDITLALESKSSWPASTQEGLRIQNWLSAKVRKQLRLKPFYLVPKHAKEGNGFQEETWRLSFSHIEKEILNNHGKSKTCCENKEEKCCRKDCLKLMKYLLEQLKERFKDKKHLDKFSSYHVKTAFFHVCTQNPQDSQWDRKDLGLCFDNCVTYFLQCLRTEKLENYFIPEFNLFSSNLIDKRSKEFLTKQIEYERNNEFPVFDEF
Kind of test: Malachite Green assay to measure cGAS activity. The settings on record: coupled enzymatic assay, phosphate detection by Malachite Green; 25 nM cGAS, 80 μM ATP, 80 μM GTP, 100 nM ISD, 4 hour at RT. The class given is biochemical. The method, then: Compounds were tested for cGAS inhibition in a coupled enzymatic assay based on Phosphate detection by Malachite Green. Final assay conditions were 20 mM TRIS pH 7.5 (Applichem), 5 mM MgCl2 (Sigma) and 0.01% BSA (Sigma) supplemented with 80 μM ATP (Sigma), 80 μM GTP (Sigma) and 100 nM Interferon Stimulating DNA (ISD) (Microsynth). Recombinantly expressed purified human cGAS (residues 161-522) was used at 25 nM.
All compounds were prepared as 10 mM stock solutions in DMSO and a 16 pt dilution series in DMSO with a dilution factor of 2.5 was prepared. 1 μL of DMSO dilution series was transferred to 32.3 μL reaction buffer, mixed by pipetting up/down, spun for 1 minute at 3000 rpm and was visually inspected for precipitation. 5 μL of 3-fold enzyme stock solution were transferred to an empty 384-well Black/Clear Flat Bottom Polystyrene NBS (Corning) rows 3-24. Rows 1-2 were filled with assay buffer. Plates were spun 10 seconds at 1000 rpm (164×g). 5 μL of compound intermediate dilution was added and mixed by pipetting up/down to rows 3-24. Rows 1-2 were filled with 3.1% DMSO assay buffer. Plates were spun 10 seconds at 1000 rpm (164×g). 5 μL 3-fold Nucleotide/DNA mix was added to all wells to start the reaction. Plates were spun 10 seconds at 1000 rpm (164×g) and incubated for 4 hour at room temperature (RT) in the dark. 5 μL 4 U/mL PPase (Sigma) were added to all wells. Plates spun 10 seconds at 1000 rpm (164×g). 10 μL BioMol green Solution (Enzo Life Sciences) was added to all wells. Plates spun 10 seconds at 1000 rpm (164×g) and incubated 30 minutes at RT in the dark. Absorbance data was collected 620 nm on an EnVision Multilable Reader (Perkin Elmer) and the following measurement settings were used: excitation filter photometric was 620 nm; excitation from the top; measurement height was 1 mm; number of flashes was 30; number of flashes integrated was 1.
All plates are checked for abnormalities and outliers in the Blank Control (no protein, row 1) and the Neutral Control (no compound, row 2) are excluded using the 3*SD rule. Data was normalized to 0 and 100% by Blank and Neutral Control and each curve was fitted and judged using the 4 parameter logistic equation to determine the IC50 for cGAS inhibition.
Table 1 provides IC50 values (μM) for cGAS inhibition obtained for particular examples of the present invention as measured by the above-described assay.
The molecule `Cc1ccc(-c2ccc(NC(=O)Cn3cncn3)c(C(=O)O)c2)c(Cl)c1` [Example 1, 4-(2-(1H-1,2,4-Triazol-1-yl)acetamido)-2′-chloro-4′-methyl-[1,1′-biphenyl]-3-carboxylic Acid] returned an IC50 of 1.83 µM.
As for `Cc1ccc(-c2ccc(NC(=O)Cc3cnc(C)[nH]c3=O)c(C(=O)O)c2)c(Cl)c1` [Example 2, 2′-Chloro-4′-methyl-4-(2-(2-methyl-6-oxo-1,6-dihydropyrimidin-5-yl)acetamido)-[1,1′-biphenyl]-3-carboxylic Acid], inhibition was half-maximal at 2.09 µM (IC50). This IC50 and that of the molecule before are within 1.5-fold of each other.
`Cc1ccc(-c2ccc(NC(=O)CCN3CCOCC3)c(C(=O)O)c2)c(Cl)c1` [Example 3, 2′-Chloro-4′-methyl-4-(3-morpholinopropanamido)-[1,1′-biphenyl]-3-carboxylic Acid] came in with a 50% inhibitory concentration (IC50) of 4.82 µM.
In turn, `Cc1ccc(-c2ccc(NC(=O)CN3CCOCC3)c(C(=O)O)c2)c(Cl)c1` [Example 4, 5-(2-Chloro-4-methylphenyl)-2-[(2-morpholin-4-ylacetyl)amino]benzoic Acid] registered an IC50 of 0.32 µM.
In the case of `Cc1ccc(-c2ccc(NC(=O)Cc3ccccc3)c(C(=O)O)c2)c(Cl)c1` [Example 5, 5-(2-Chloro-4-methylphenyl)-2-[(2-phenylacetyl)amino]benzoic Acid], the midpoint of inhibition, the IC50, lay at 3.07 µM.
For `Cc1ccc(-c2ccc(OCCn3ccnc3)c(C(=O)O)c2)c(Cl)c1` [Example 6, 5-(2-Chloro-4-methylphenyl)-2-(2-imidazol-1-ylethoxy)benzoic Acid], the IC50 worked out at 2.8 µM.
`Cc1ccc(-c2ccc(OCCN3CCS(=O)(=O)CC3)c(C(=O)O)c2)c(Cl)c1` [Example 7, 5-(2-Chloro-4-methylphenyl)-2-[2-(1,1-dioxo-1,4-thiazinan-4-yl)ethoxy]benzoic Acid] came in with an IC50 of 2.67 µM.
For the molecule `Cc1ccc(-c2ccc(OCc3ccccc3)c(C(=O)O)c2)c(Cl)c1` [Example 8, 5-(2-Chloro-4-methylphenyl)-2-phenylmethoxybenzoic Acid], the IC50 amounted to 4.21 µM.
